Experiments:
[1] = in humans; cited from earlier work
[2] = system: rats sedated with DEX; assay: LFP spectrogram and electromyogram analysis in rats sedated with DEX; format: in vivo; conditions: infusion after DEX infusion; FIG. 3 bottom panel
Text: Spectrograms were constructed from continuous LFP recordings from the prefrontal cortex of rats. In these figures, spectral power (dB) at a given frequency (Hz) is represented by color and plotted over time.

[3] = system: rat sedated with DEX; assay: Quadrant crossings in the cage after dexmedetomidine sedation (single rat); format: in vivo
Protocol: The data provided is from a single rat that underwent 3 experiments, with 3-4 days of rest between each session. FIG. 5 is a schematic of the experimental Design.
The rat received an intravenous infusion of dexmedetomidine (DEX, 50 mcg/kg) over 10 minutes, followed by a 5-minute rest period to switch medications. […] Note that 7.4 mg/kg of LDX is enzymatically cleaved to slowly release a total of 2.2 mg/kg of d-AMPH.
The cage was divided into 4 quadrants, and the number of times the rat crossed from one quadrant to another was recorded. Each data point represents the number of quadrant crossings in the cage during the preceding 15 minutes. […] By adjusting the relative doses of d-AMPH and LDX, a combination of these two drugs provided continuous, long-lasting reversal of DEX sedation, without the adverse side effects of administering a larger dose of d-AMPH, e.g., hyperactivity and large increases in heart rate and blood pressure.

[4] = system: rats under propofol and sevoflurane anesthesia; conditions: Kenny et al., PLoS ONE 2015; cited from earlier work
[5] = system: rats anesthetized with ketamine; assay: Recovery of consciousness after ketamine anesthesia in rats; format: in vivo; conditions: 8 rats, crossover; ketamine 50 mg/kg IV over 10 min; 5 min later dextroamphetamine 3 mg/kg IV over 2 min; saline mean 6.3 minutes; p<0.05
Protocol: A randomized, blinded, crossover design was used with 8 rats. After intravenous administration of ketamine (50 mg/kg IV) over 10 minutes, all rats became unconscious. […] The difference was statistically significant (p<0.05).

[6] = system: rats sedated with DEX; assay: Recovery of consciousness (righting reflex) in rats sedated with DEX; format: in vivo; conditions: 8 rats, crossover; DEX 50 micrograms/kg IV over 10 min; 5 min later dextroamphetamine 3 mg/kg IV over 2 min; saline mean 92 minutes; p<0.01
Text: A randomized, blinded, crossover design was used with 8 rats. […] This difference was statistically significant (p<0.01).

SMILES | half-life [1] | low-frequency LFP power, consciousness and EMG activity [2] | reversal of DEX sedation (movement, quadrant crossings) ([3]; DEX 50 mcg/kg IV over 10 min, d-AMPH 0.8 mg/kg alone, 2-minute IV infusion, FIG. 6) | time after which re-sedation occurred ([3]; DEX 50 mcg/kg IV, d-AMPH 0.8 mg/kg IV alone) [min] | reversal of general anesthesia [4] | mean time to recovery of consciousness after ketamine [5] [min] | mean time to regain consciousness [6] [min]
Cc1cccc([C@H](C)c2cnc[nH]2)c1C [DEX, Dexmedetomidine] | approximately 2 hours |  |  |  |  |  | 
C[C@H](N)Cc1ccccc1 [dextroamphetamine] |  | rapidly decreased low-frequency LFP power, which coincided with return of consciousness (ROC) and increased EMG activity | initially woke up and moved around | 30 | reverse propofol and sevoflurane anesthesia | 11.6 | 1.7

Reference: US12458609B2 (The General Hospital Corporation, priority 2018, dated 2025)
